Experimental findings from publication PMC5077990, “P53 activation inhibits all types of hematopoietic progenitors and all stages of megakaryopoiesis” (Oncotarget, 2016) are described below.

“Also recorded” adds a separate entry of the source. Like-named read-outs stand apart in the source and are kept apart here.

Assay [1] has as its system p53 in day 8-erythroblasts. The assay is described as follows: p53 expression by western-blot in day 8-erythroblasts. The note with it: Homo sapiens, 192 h, read-out: p53 fold induction (western-blot).
Description: For that purpose, CD34^+ progenitors were cultured in serum-free medium with SCF and EPO for 8 days. SAR405838- or MI-219-treated erythroblasts were analyzed for p53 expression by western-blot. […] Day 8-erythroblasts were treated with various doses of SAR405838 or MI-219 for 48 hours.
Figure 4 Effect of SAR405838 on erythroid differentiation A. Day 8-erythroblasts treated with MI-219 or SAR405838 were analyzed for p53 expression by western-blot. β-actin was used as loading control.
Expression levels were performed by western-blot analysis using mouse anti-p53 and anti-β-actin (Sigma-Aldrich), anti-bax (Oncogene), anti-p21 (Beckton Dickenson), anti-Mdm2 (BD Pharmingen), anti-BCL-XL, and rat anti-HSC70 (Stressgen). Proteins were quantified by Image J software.
In assay [2] the test system is CFU-MK (Colony Forming Unit-Megakaryocyte) progenitors from CD34+ cells. The assay is described as follows: Colony assay in fibrin clot, CFU-MK. The note with it: Homo sapiens. The format is cell-based, human. Here is the method:
CD34^+cells were obtained from leukapheresis samples after mobilization of donors after informed consent in agreement with our Institute Ethic Committee (Assistance Publique des Hôpitaux de Paris) and in accordance with the Declaration of Helsinki. CD34^+cells were isolated by a positive selection using an immunomagnetic cell sorting system (AutoMacs; Miltenyi Biotec, Bergisch Gladbach, Germany). 500 to 1000 normal CD34^+cells were plated either in 1% methylcellulose assay (StemCells technologies, Vancouver, Canada) to quantify erythroid (BFU-E) and granulo-monocytic (CFU-GM) progenitors or in serum-free fibrin clot assay for quantification of MK progenitors (CFU-MK) in the absence or presence of various concentration of SAR405838 or MI-219. Cultures in methylcellulose were stimulated by addition of human recombinant growth factors: G-CSF (20 ng/mL), IL-3 (10 ng/mL) SCF (25 ng/mL, Biovitrum AB, Stockholm, Sweden), IL-6 (10 ng/mL), FLT3 (10 ng/mL) and human EPO (1 U/mL). Cultures in fibrin clot were stimulated with 10 ng/mL TPO (Kirin Brewery, Tokyo, Japan) and 25 ng/mL SCF. BFU-E and CFU-GM colonies were enumerated at day 14 of culture. […]

Assay [3] concerns day 10-MKs (proplatelet formation). Kind of assay: Proplatelet formation assay. The format is cell-based, human. The protocol:
Then, we explored the effects of p53 stabilization on PPT formation (the step before platelet release). […] To confirm that this was due to p53 stabilization, we knocked-down p53 with 2 shRNA showing a decrease in P53 RNA and protein levels (Figure 7B/7C) and reduced expression of p53 targets (Figure 7D).
Figure 7 Effects of p53 stabilization on PPT formation A. Percentage of proplatelet-forming day 10-MKs after incubation with 0.5 or 1 μM of SAR405838 or MI-219. […] A total of 200 cells per well were counted during 4 days. Error bars in histograms represent the SD of one representative experiment performed in triplicate wells. Similar results were obtained in 3 repeated experiments. * represents statistical significance (**P<0.01). […] D. p53, MDM2, BCL-XL, BAX and p21 protein levels were analyzed in GFP^+/CD41^+ sorted cells by Western blot (at days 10 and 13 of culture). β-actin was used as loading control. […] A total of 200 cells per well were counted during 4 days (from day 11 to day 14). […]
CD41^+GFP^+ MKs were sorted at day 8 of culture and plated in 96-well plates at a concentration of 2,000 cells/well in serum-free medium containing TPO, and quantification of PPT bearing MKs was performed as previously described. […] A total of 200 cells per well were counted during 4 days. […]

As to `CC(C)(C)C[C@@H]1N[C@@H](C(=O)N[C@H]2CC[C@H](O)CC2)[C@H](c2cccc(Cl)c2F)[C@]12C(=O)Nc1cc(Cl)ccc12` [SAR405838], the fold induction at 2 µM in assay [1] is 4.8. The fold induction at 4 µM in assay [1] is 4.5. Further, the IC50 in assay [2] (72 h, CD34+ cells treated 3 days, washed, then plated in colony assay, read-out: IC50, reduction of CFU-MK progenitors) was approximately 2000 nM; in assay [2] (CD34+ cells seeded in fibrin clot in the presence of compound, compared to untreated control, read-out: dose inducing a 50% reduction of CFU-MK numbers), 500 to 1000 nM. Moreover, the “PPT (proplatelet) formation” value was “inhibited; also recorded: drastically decreased” in assay [3] (0.5 μM) and “completely abrogated; also recorded: completely abolished” in assay [3] (1 μM).
